{"source": "paper PMC11845477", "about": "“Exploring the principles behind antibiotics with limited resistance” (Nature Communications, 2025)", "key": {"A. baumannii": {"system": "A. baumannii", "assay": "Bacterial survival at 10xMIC for 4 hours", "format": "cell-based, Acinetobacter baumannii", "details": "for Survival rate (log10): Acinetobacter baumannii, survival at 10xMIC for 4 hours, single replicates, (fig 9a source data)", "experimental": "(§1) We employed image analysis to quantify bacterial survival under fixed antibiotic concentrations (10xMIC for 4 hours) on E. coli, A. baumannii, K. pneumoniae, and P. aeruginosa. […] Survival rate was quantified by calculating the ratio of the viable cells after antibiotic treatment and the total initial viable cell count.\n(§2) Fig. 9 Killing kinetics of the studied antibiotics. a Bacterial survival rate in response to toxic antibiotic exposure. […] The bars indicate the survival rate (log10) compared to the untreated initial viable cell count (see “Methods”). Data are presented as mean values of 5 biological replicates ± SEM. The antibiotic group differentiation is denoted by color. […] Survival was estimated by measuring cell viability (colony-forming units/ml) of 2 biologically independent strains following a 4-hour exposure to different concentrations of 16 antibiotics on E. coli ATCC25922 (for further details, see “Methods”). The antibiotic concentration that kills 99.9% of the E. coli population is indicated as a vertical dotted line (see Supplementary Data 5). Error bars represent standard error calculated from the colony counts by Poisson’s model. A Hill function was fitted to the dose-response data from two biological replicates, producing sigmoidal curves (Supplementary Data 5). The Hill coefficient reflects how steeply the survival rate decreases in response to increasing antibiotic concentration ([…]). […] X-axis label colors indicate mode of action groups. For detailed information on antibiotic and bacterial species, see Supplementary Data 1. Source data are provided as a Source Data file.\n(§3) In this current study, the killing kinetics of each antibiotic was measured according to a previously established experimental protocol[62] with minor modifications. During this assay, the bacterial cultures were exposed to antibiotics in 96-well assay plates and their viability after 4 hours of exposure was quantified by two methods: i) microplating and colony counting or ii) fluorescent staining of cells and counting of the fluorescent units.\n(§4) Specifically, these experiments were performed in the following steps: (1) Preparation of bacterial stocks. Single colonies from each strain were isolated and grown overnight in MHB medium at 37 °C, 160 rpm. In case of the fluorescently tagged E. coli strains, the medium was supplemented with 10 μg/mL chloramphenicol, to maintain the pZS2R plasmid. Overnight cultures were diluted 1:5000 and grown to an optical density at 600 nm (OD600) of 0.25. These cultures were concentrated by centrifugation and small aliquots of 50 μL containing ~2.2 × 10^9 cells were frozen in glycerol (stored at −80 °C). (2) Preparing assay plates with antibiotics. 96-well plates were filled with 235 μL MHB and supplemented with antibiotics using an automated digital dispenser (D300e, Tecan). In the case of SCH79797, we used minimal media. […] For testing the clearance efficacy of each antibiotic at a single lethal dose, the 10x of the MIC for each antibiotic-strain pair were prepared in at least three replicates. (3) Antibiotic exposure. During the dose response assay, frozen cultures of the E. coli strains expressing YFP and mCherry were thawed and mixed at a 1:1 ratio, diluted 1:1000 in 30 mL MHB and incubated for 45 min at 37 °C and 160 rpm. During the single-dose assay, the frozen cultures of experimental strains (E. coli, K. pneumoniae, A. baumannii) were also thawed and diluted 1:1000 in 30 mL MHB and incubated at 37 °C to reach an OD of 0.25 and 160 rpm. Following this incubation phase, these bacterial cultures were then aliquoted into the 96-well deep-well antibiotic plates (15 μL culture; total volume of 250 μL) at an inoculum density of about 10^7 CFU."}, "E. coli": {"system": "E. coli", "format": "cell-based, Escherichia coli", "experimental": "as §1, §2, §3, §4"}, "E. coli ATCC25922": {"system": "E. coli ATCC25922", "assay": "Dose-response killing curves (99.9% killing concentration, Hill coefficient)", "format": "cell-based, Escherichia coli", "details": "dose-response killing curve; for 99.9% killing (10^-3): unit not given", "text": "as §2\nTo test the dose range under which resistance can evolve, we employed advanced microplating and automated image analysis. We quantified bacterial population survival at varying antibiotic concentrations[62] (see “Methods”) in E. coli. Briefly, we generated dose-response curves and investigated how steeply the killing effect increases as the antibiotic concentration rises. In specific, the Hill coefficient representing each bacterial strain-antibiotic combination was calculated to quantify dose-kill kinetics.\nas §3\nas §4, with “rpm.” for “rpm. Following this incubation phase, these bacterial cultures were then aliquoted into the 96-well deep-well antibiotic plates (15 μL culture; total volume of 250 μL) at an inoculum density of about 10^7 CFU.”"}, "[1]": {"details": "Escherichia coli, survival at 10xMIC for 4 hours, single replicates, (fig 9a source data)"}}, "note": "Where “and” joins values, the source holds several entries; their conditions need not be identical. Equal entries are not always repeated. Where two headings read alike, the source gives them in different places. Where a SMILES comes first, the peptide text is derived from it. Bridges are numbered along the chain shown (N, C = ends). [ ]: non-standard residue; d: D form. The star is where a group is joined. X1 = NC[C@@H](CC(=O)*)c1cccc(Cl)c1; X2 = CC[C@H](C)CCCCC(=O)*; Dab = NCC[C@H](N)C(=O)O; Dap = NC[C@H](N)C(=O)O"}
{"compound": "CN[C@@H]1[C@@H](O[C@H]2O[C@H](CO)[C@@H](N)[C@H](O)[C@H]2O)OC2C[C@@H](N)[C@@H](O[C@H]3[C@H](O)[C@@H](O)[C@H](N)C[C@@H]3N)OC2[C@@H]1O", "note": "(stereo partly shown) [Apramycin]", "values": [{"measurement": "Survival rate (log10)", "setting": "A. baumannii; listed as APR", "value": "-1.378 log10 and -1.536 log10 and -1.241 log10 and -1.504 log10 and -1.3851 log10"}]}
{"compound": "Nc1nc(-n2cc(C(=O)O)c(=O)c3cc(F)c(N4CC(O)C4)c(Cl)c32)c(F)cc1F", "note": "[Delafloxacin]", "values": [{"measurement": "Survival rate (log10)", "setting": "E. coli; Escherichia coli, survival at 10xMIC for 4 hours, single replicates, (fig 9a source data), listed as DEL", "value": "-1.163 log10 and -1.03 log10 and -1.096 log10 and -1.128 log10 and -1.122 log10"}, {"measurement": "Survival rate (log10)", "setting": "A. baumannii; listed as DEL", "value": "-1.416 log10 and -1.661 log10 and -1.352 log10 and -1.5252 log10 and -1.635 log10"}]}
{"compound": "CN(C)[C@@H]1C(O)=C(C(N)=O)C(=O)[C@@]2(O)C(O)=C3C(=O)c4c(O)c(NC(=O)CN5CCCC5)cc(F)c4C[C@H]3C[C@@H]12", "note": "[Eravacycline]", "values": [{"measurement": "Survival rate (log10)", "setting": "E. coli; Escherichia coli, survival at 10xMIC for 4 hours, single replicates, (fig 9a source data), listed as ERA", "value": "-1.588 log10 and -1.262 log10 and -1.406 log10 and -1.2833 log10 and -1.1562 log10"}, {"measurement": "Survival rate (log10)", "setting": "A. baumannii; listed as ERA", "value": "-1.499 log10 and -1.238 log10 and -1.644 log10 and -1.596 log10 and -1.425 log10"}]}
{"compound": "CNC(C)C1CCC(N)C(OC2C(N)CC(N)C(OC3OCC(C)(O)C(NC)C3O)C2O)O1", "note": "(stereo not shown) [Gentamicin]", "values": [{"measurement": "Survival rate (log10)", "setting": "E. coli; Escherichia coli, survival at 10xMIC for 4 hours, single replicates, (fig 9a source data), listed as GEN", "value": "-0.32 log10 and -0.3695 log10 and -0.2419 log10 and -0.4019 log10 and -0.3632 log10"}, {"measurement": "Survival rate (log10)", "setting": "A. baumannii; listed as GEN", "value": "-1.432 log10 and -1.215 log10 and -1.434 log10 and -1.4437 log10 and -1.516 log10"}]}
{"compound": "CC[C@H](C)CCCCC(=O)N[C@@H](CCN)C(=O)N[C@H](C(=O)N[C@@H](CCN)C(=O)N[C@H]1CCNC(=O)[C@H]([C@@H](C)O)NC(=O)[C@H](CCN)NC(=O)[C@H](CCN)NC(=O)[C@H](CC(C)C)NC(=O)[C@@H](Cc2ccccc2)NC(=O)[C@H](CCN)NC1=O)[C@@H](C)O", "note": "[Polymyxin B] (X2-[Dab]T[Dab][Dab][Dab][dF]L[Dab][Dab]T; lactam 4-C (inferred); N-terminus assumed)", "values": [{"measurement": "Survival rate (log10)", "setting": "E. coli; Escherichia coli, survival at 10xMIC for 4 hours, single replicates, (fig 9a source data), listed as PMB", "value": "-4.007 log10 and -4.747 log10 and -3.481 log10"}, {"measurement": "Steepness (Hill Coefficient)", "setting": "E. coli ATCC25922", "value": 46.82}, {"measurement": "99.9% killing (10^-3)", "setting": "E. coli ATCC25922", "value": 1.08}, {"measurement": "Survival rate (log10)", "setting": "A. baumannii; listed as PMB", "value": "-3.38 log10 and -2.762 log10 and -3.033 log10 and -2.9785 log10 and -2.974 log10"}]}
{"compound": "CC(C)c1ccc(Cn2ccc3c4c(N)nc(NC5CC5)nc4ccc32)cc1", "note": "[SCH79797]", "values": [{"measurement": "bacterial survival after toxic antibiotic exposure", "setting": "E. coli; 10xMIC for 4 hours", "value": "eliminated the entire bacterial population"}, {"measurement": "Survival rate (log10)", "setting": "E. coli; [1]", "value": -6, "unit": "log10"}, {"measurement": "Steepness (Hill Coefficient)", "setting": "E. coli ATCC25922", "value": 16.39}, {"measurement": "99.9% killing (10^-3)", "setting": "E. coli ATCC25922", "value": 4.31}, {"measurement": "bacterial survival after toxic antibiotic exposure", "setting": "A. baumannii; 10xMIC for 4 hours", "value": "eliminated the entire bacterial population"}, {"measurement": "Survival rate (log10)", "setting": "A. baumannii", "value": -6, "unit": "log10"}]}
{"compound": "CC(C)C[C@@H]1NC(=O)[C@@H](Cc2ccccc2)NC(=O)[C@H](CCN)NC(=O)[C@@H](NC(=O)[C@H](CN)NC(=O)[C@@H](NC(=O)C[C@H](CN)c2cccc(Cl)c2)[C@@H](C)O)CCNC(=O)[C@H]([C@@H](C)O)NC(=O)[C@H](CCN)NC(=O)[C@H](CCN)NC1=O", "note": "[SPR206] (X1-T[Dap][Dab][Dab][dF]L[Dab][Dab]T; lactam 3-C (inferred); N-terminus assumed)", "values": [{"measurement": "Survival rate (log10)", "setting": "E. coli; Escherichia coli, survival at 10xMIC for 4 hours, single replicates, (fig 9a source data), listed as SPR", "value": "-4.747 log10 and -3.687 log10 and -3.935 log10 and -4.007 log10 and -3.902 log10"}, {"measurement": "Steepness (Hill Coefficient)", "setting": "E. coli ATCC25922", "value": 59.45}, {"measurement": "99.9% killing (10^-3)", "setting": "E. coli ATCC25922", "value": 0.18}, {"measurement": "Survival rate (log10)", "setting": "A. baumannii; listed as SPR", "value": "-1.951 log10 and -2.839 log10 and -3.084 log10 and -1.511 log10 and -2.915 log10"}]}
{"compound": "C[C@@H](O)[C@H]1C(=O)N2C(C(=O)O)=C(S[C@H]3CC[S@@+]([O-])C3)S[C@H]12", "note": "[Sulopenem]", "values": [{"measurement": "Survival rate (log10)", "setting": "E. coli; Escherichia coli, survival at 10xMIC for 4 hours, single replicates, (fig 9a source data), listed as SUO", "value": "-1.918 log10 and -1.5648 log10 and -1.786 log10 and -1.733 log10 and -1.844 log10"}, {"measurement": "Steepness (Hill Coefficient)", "setting": "E. coli ATCC25922", "value": 1.03}, {"measurement": "99.9% killing (10^-3)", "setting": "E. coli ATCC25922", "value": 0.18}, {"measurement": "Survival rate (log10)", "setting": "A. baumannii; listed as SUO", "value": "-2.317 log10 and -2.432 log10 and -2.658 log10 and -2.635 log10"}]}
{"compound": "POL7306", "values": [{"measurement": "Survival rate (log10)", "setting": "E. coli", "value": -4.747, "unit": "log10"}, {"measurement": "Survival rate (log10)", "setting": "E. coli; Escherichia coli, survival at 10xMIC for 4 hours, single replicates, (fig 9a source data), listed as POL", "value": "-4.446 log10 and -4.3509 log10"}, {"measurement": "Steepness (Hill Coefficient)", "setting": "E. coli ATCC25922", "value": 43.61}, {"measurement": "99.9% killing (10^-3)", "setting": "E. coli ATCC25922", "value": 2.31}, {"measurement": "Survival rate (log10)", "setting": "A. baumannii; listed as POL", "value": "-3.645 log10 and -4.987 log10 and -2.756 log10 and -3.625 log10 and -3.539 log10"}]}
{"compound": "Tridecaptin M152-P3", "values": [{"measurement": "Survival rate (log10)", "setting": "E. coli", "value": -4.747, "unit": "log10"}, {"measurement": "Survival rate (log10)", "setting": "E. coli; [1]", "value": -3.386, "unit": "log10"}, {"measurement": "Steepness (Hill Coefficient)", "setting": "E. coli ATCC25922", "value": 18.9}, {"measurement": "99.9% killing (10^-3)", "setting": "E. coli ATCC25922", "value": 4.73}, {"measurement": "Survival rate (log10)", "setting": "A. baumannii; listed as TRD", "value": "-2.876 log10 and -2.59 log10 and -2.704 log10 and -2.72 log10 and -2.696 log10"}]}
{"compound": "colistin", "values": [{"measurement": "Survival rate (log10)", "setting": "E. coli; Escherichia coli, survival at 10xMIC for 4 hours, single replicates, (fig 9a source data), listed as COL", "value": "-4.747 log10 and -3.794 log10"}, {"measurement": "Survival rate (log10)", "setting": "A. baumannii; listed as COL", "value": "-3.481 log10 and -3.59 log10 and -3.495 log10 and -4.987 log10 and -3.369 log10"}]}
